Results as given in ChEMBL document CHEMBL3046091, “Synthesis and antimicrobial activities of 2-azetidinyl-4-quinazolinone derivatives of diclofenac analogue” (2011).

Key:
Type in all cases: functional
Candida albicans [1] = test: Antifungal activity against Candida albicans ATCC 10231 at 100 ug/ml by cup-plate method; details: read-out: IZ
Bacillus subtilis [2] = test: Antibacterial activity against Bacillus subtilis ATCC 6633 at 50 to 100 ug/ml by cup-plate method
Bacillus subtilis [3] = test: Antibacterial activity against Bacillus subtilis ATCC 6633 at 100 ug/ml by cup-plate method; details: read-out: IZ
Escherichia coli [4] = test: Antibacterial activity against Escherichia coli ATCC 25922 at 50 to 100 ug/ml by cup-plate method
Pseudomonas aeruginosa [5] = test: Antibacterial activity against Pseudomonas aeruginosa ATCC 9027 at 100 ug/ml by cup-plate method; details: read-out: IZ
Pseudomonas aeruginosa [6] = test: Antibacterial activity against Pseudomonas aeruginosa ATCC 9027 at 50 ug/ml by cup-plate method; details: read-out: IZ
Escherichia coli [7] = test: Antibacterial activity against Escherichia coli ATCC 25922 at 50 ug/ml by cup-plate method; details: read-out: IZ
Staphylococcus aureus [8] = test: Antibacterial activity against Staphylococcus aureus ATCC 9144 at 50 to 100 ug/ml by cup-plate method
Candida albicans [9] = test: Antifungal activity against Candida albicans ATCC 10231 at 50 ug/ml by cup-plate method; details: read-out: IZ
Escherichia coli [10] = test: Antibacterial activity against Escherichia coli ATCC 25922 at 100 ug/ml by cup-plate method; details: read-out: IZ
Staphylococcus aureus [11] = test: Antibacterial activity against Staphylococcus aureus ATCC 9144 at 50 ug/ml by cup-plate method; details: read-out: IZ
Staphylococcus aureus [12] = test: Antibacterial activity against Staphylococcus aureus ATCC 9144 at 100 ug/ml by cup-plate method; details: read-out: IZ
Bacillus subtilis [13] = test: Antibacterial activity against Bacillus subtilis ATCC 6633 at 50 ug/ml by cup-plate method; details: read-out: IZ
Pseudomonas aeruginosa [14] = test: Antibacterial activity against Pseudomonas aeruginosa ATCC 9027 at 50 to 100 ug/ml by cup-plate method

Structure (SMILES)	zone of inhibition at 100 µg/mL (Candida albicans [1])	Activity (Bacillus subtilis [2])	zone of inhibition at 100 µg/mL (Bacillus subtilis [3])	Activity (Escherichia coli [4])	zone of inhibition at 100 µg/mL (Pseudomonas aeruginosa [5])	zone of inhibition at 50 µg/mL (Pseudomonas aeruginosa [6])	zone of inhibition at 50 µg/mL (Escherichia coli [7])	Activity (Staphylococcus aureus [8])	zone of inhibition at 50 µg/mL (Candida albicans [9])	zone of inhibition at 100 µg/mL (Escherichia coli [10])	zone of inhibition at 50 µg/mL (Staphylococcus aureus [11])	zone of inhibition at 100 µg/mL (Staphylococcus aureus [12])	zone of inhibition at 50 µg/mL (Bacillus subtilis [13])	Activity (Pseudomonas aeruginosa [14])
O=C1C(Cl)C(c2ccccc2O)N1c1ccc(-n2c(Cc3ccccc3Nc3c(Cl)cccc3Cl)nc3ccc(Br)cc3c2=O)cc1 (centres undefined)	0 mm	42.68%	6 mm	43.53%	6 mm	4 mm	3 mm	50.98%	0 mm	6 mm	3 mm	6 mm	3 mm	50%
COc1ccc(C2C(Cl)C(=O)N2c2ccc(-n3c(Cc4ccccc4Nc4c(Cl)cccc4Cl)nc4ccc(Br)cc4c3=O)cc2)c(O)c1 (centres undefined)	1 mm	44.69%	7 mm	50%	6 mm	3 mm	4 mm	58.33%	0 mm	7 mm	4 mm	7 mm	4 mm	50.98%
O=C1C(Cl)C(c2cccc([N+](=O)[O-])c2)N1c1ccc(-n2c(Cc3ccccc3Nc3c(Cl)cccc3Cl)nc3ccc(Br)cc3c2=O)cc1 (centres undefined)	2 mm	32.65%	4 mm	32.65%	4 mm	2 mm	2 mm	29.73%	1 mm	4 mm	1 mm	3 mm	2 mm	36.75%
O=c1c2cc(Br)ccc2nc(Cc2ccccc2Nc2c(Cl)cccc2Cl)n1-c1ccc(/N=C/c2ccc(O)cc2)cc1	1 mm	30.5%	4 mm	31.5%	5 mm	2 mm	2 mm	34.85%	0 mm	4 mm	3 mm	4 mm	2 mm	44.55%
O=c1c2cc(Br)ccc2nc(Cc2ccccc2Nc2c(Cl)cccc2Cl)n1-c1ccc(/N=C/c2ccc(Cl)cc2)cc1	4 mm	59.79%	9 mm	49.68%	6 mm	3 mm	5 mm	50.88%	2 mm	7 mm	4 mm	6 mm	5 mm	46.93%
O=C1C(Cl)C(c2ccccc2Cl)N1c1ccc(-n2c(Cc3ccccc3Nc3c(Cl)cccc3Cl)nc3ccc(Br)cc3c2=O)cc1 (centres undefined)	3 mm	41.48%	6 mm	44.56%	7 mm	4 mm	3 mm	65.76%	2 mm	6 mm	4 mm	8 mm	3 mm	58.33%
CN(C)c1ccc(C2C(Cl)C(=O)N2c2ccc(-n3c(Cc4ccccc4Nc4c(Cl)cccc4Cl)nc4ccc(Br)cc4c3=O)cc2)cc1 (centres undefined)	1 mm	0%	0 mm	0%	0 mm	0 mm	0 mm	0%	0 mm	0 mm	0 mm	0 mm	0 mm	0%
O=C1C(Cl)C(c2ccccc2[N+](=O)[O-])N1c1ccc(-n2c(Cc3ccccc3Nc3c(Cl)cccc3Cl)nc3ccc(Br)cc3c2=O)cc1 (centres undefined)	2 mm	42.68%	6 mm	37.56%	6 mm	3 mm	3 mm	36.75%	1 mm	5 mm	2 mm	4 mm	3 mm	46.93%
O=c1c2cc(Br)ccc2nc(Cc2ccccc2Nc2c(Cl)cccc2Cl)n1-c1ccc(/N=C/c2ccccc2O)cc1	1 mm	36%	5 mm	36.74%	4 mm	2 mm	3 mm	42.87%	0 mm	5 mm	3 mm	5 mm	3 mm	38.83%
O=c1c2cc(Br)ccc2nc(Cc2ccccc2Nc2c(Cl)cccc2Cl)n1-c1ccc(/N=C/c2ccccc2Cl)cc1	2 mm	42.68%	6 mm	37.56%	5 mm	3 mm	3 mm	50.98%	1 mm	5 mm	3 mm	6 mm	3 mm	44.44%
CCN(CC)c1ccc(C2C(Cl)C(=O)N2c2ccc(-n3c(Cc4ccccc4Nc4c(Cl)cccc4Cl)nc4ccc(Br)cc4c3=O)cc2)c(O)c1 (centres undefined)	0 mm	0%	0 mm	0%	0 mm	0 mm	0 mm	0%	0 mm	0 mm	0 mm	0 mm	0 mm	0%
C[C@@H]1[C@H](O)[C@@H](C)/C=C/C=C/C=C/C=C/C=C/C=C/C=C/[C@H](O[C@@H]2O[C@H](C)[C@@H](O)[C@H](N)[C@@H]2O)C[C@@H]2O[C@](O)(C[C@@H](O)C[C@@H](O)[C@H](O)CC[C@@H](O)C[C@@H](O)CC(=O)O[C@H]1C)C[C@H](O)[C@H]2C(=O)O [AMPHOTERICIN B]	9 mm	–	–	–	–	–	–	–	4 mm	–	–	–	–	–
CC1(C)S[C@@H]2[C@H](NC(=O)Cc3ccccc3)C(=O)N2[C@H]1C(=O)O [PENICILLIN G]	–	–	14 mm	–	12 mm	6 mm	7 mm	–	–	14 mm	6 mm	12 mm	7 mm	–
